According to patent US4526989A, “1,4-Bis (substituted-amino)-5,8-dihydroxy-anthraquinones and leuco bases thereof” (priority 1979, dated 1985):

Legend:
melanotic melanoma B16 = experiment: Melanotic Melanoma B16 test; type: in vivo, C57BC/6 mice; conditions: days 1 through 9
Protocol: The animals used are C57BC/6 mice, all of the same sex, weighing a minimum of 17 g. and all within a 3-g. weight range. There are normally 10 animals per test group. A one-gram portion of melanotic melanoma B16 tumor is homogenized in 10 ml. of cold balanced salt solution and a 0.5-ml. aliquot of the homogenate is implanted intraperitoneally into each of the test mice. The test compounds are administered intraperitoneally on days one through 9 (relative to tumor inoculation) at various doses. The animals are weighed and survivors are recorded on a regular basis for 60 days. The median survival time and the ratio of survival time for treated (T)/control (C) animals are calculated. […] The criterion for efficacy is T/C×100≥125%.

[1] = test system: lymphocytic leukemia P388; experiment: Lymphocytic leukemia P388 test (intraperitoneal administration); type: in vivo, DBA/2 mice; conditions: days 1, 5 and 9
Method in brief: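 DBA/2 mice, single sex, 5-6 per group, inoculated i.p. with 10^6 P388 leukemia cells. Compounds given i.p. at various doses on days 1, 5 and 9; survival followed 30 days, reporting median survival time and treated/control (T/C) survival ratio.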

[2] = Mus musculus, ip, 3 mg./kg. i.p., efficacy ≥125%, read-out: T/C × 100
[3] = Mus musculus, ip, 6 mg./kg. i.p., efficacy ≥125%, read-out: T/C × 100
[4] = Mus musculus, ip, 25 mg./kg. i.p., efficacy ≥125%, read-out: T/C × 100
[5] = Mus musculus, ip, 50 mg./kg. i.p., efficacy ≥125%, read-out: T/C × 100
[6] = Mus musculus, P388, ip, 12.5 mg./kg. i.p., efficacy ≥125%, read-out: T/C × 100
[7] = Mus musculus, P388, ip, 25 mg./kg. i.p., efficacy ≥125%, read-out: T/C × 100
[8] = Mus musculus, P388, ip, 50 mg./kg. i.p., efficacy ≥125%, read-out: T/C × 100
[9] = Mus musculus, P388, ip, 100 mg./kg. i.p., efficacy ≥125%, read-out: T/C × 100
[10] = Mus musculus, P388, ip, 200 mg./kg. i.p., efficacy ≥125%, read-out: T/C × 100

Q: O=C1C2=C(NCCN3CCNCC3)CCC(NCCN3CCNCC3)=C2C(=O)c2c(O)ccc(O)c21 [Leuco-1,4-bis[2-(1-piperazinyl)ethylamino]-5,8-dihydroxyanthraquinone] was tested. Which “Median Survival Time” value (melanotic melanoma B16; 3 mg./kg. i.p.) did it give?
A: The value was 20.5 days.

Q: And the “Median Survival Time” value (melanotic melanoma B16; 6 mg./kg. i.p.)?
A: Its value is 22.0 days.

Q: And the “Median Survival Time” value (melanotic melanoma B16; 12.5 mg./kg. i.p.)?
A: The value was 26.0 days.

Q: What about the “Median Survival Time” value (melanotic melanoma B16; 25 mg./kg. i.p.) of the same molecule?
A: The value was 30.5 days.

Q: What about the “Median Survival Time” value (melanotic melanoma B16; 50 mg./kg. i.p.) of the same molecule?
A: The value was 34.5 days.

Q: And the response vs control in vivo at 3 mg/kg (melanotic melanoma B16; [2])?
A: The response vs control in vivo at 3 mg/kg was 121%.

Q: And the response vs control in vivo at 6 mg/kg (melanotic melanoma B16; [3])?
A: Its response vs control in vivo at 6 mg/kg is 129%.

Q: What about the response vs control in vivo at 12.5 mg/kg (melanotic melanoma B16; Mus musculus, ip, 12.5 mg./kg. i.p., efficacy ≥125%, read-out: T/C × 100) of the same molecule?
A: The response vs control in vivo at 12.5 mg/kg was 153%.

Q: And the response vs control in vivo at 25 mg/kg (melanotic melanoma B16; [4])?
A: Its response vs control in vivo at 25 mg/kg is 179%.

Q: And the response vs control in vivo at 50 mg/kg (melanotic melanoma B16; [5])?
A: Its response vs control in vivo at 50 mg/kg is 203%.

Q: What about the “Median Survival Time” value ([1]; 12.5 mg./kg. i.p.) of the same molecule?
A: The value was 14.0 days.

Q: And the “Median Survival Time” value ([1]; 25 mg./kg. i.p.)?
A: Its value is 15.0 days.

Q: What about the “Median Survival Time” value ([1]; 50 mg./kg. i.p.) of the same molecule?
A: Its value is 16.0 days.

Q: What about the “Median Survival Time” value ([1]; 100 mg./kg. i.p.) of the same molecule?
A: Its value is 21.0 days.

Q: What about the “Median Survival Time” value ([1]; 200 mg./kg. i.p.) of the same molecule?
A: The value was 7.0 days.

Q: And the response vs control in vivo at 12.5 mg/kg [1, 6]?
A: Its response vs control in vivo at 12.5 mg/kg is 156%.

Q: What about the response vs control in vivo at 25 mg/kg [1, 7] of the same molecule?
A: Its response vs control in vivo at 25 mg/kg is 167%.

Q: What about the response vs control in vivo at 50 mg/kg [1, 8] of the same molecule?
A: Its response vs control in vivo at 50 mg/kg is 178%.

Q: What about the response vs control in vivo at 100 mg/kg [1, 9] of the same molecule?
A: Its response vs control in vivo at 100 mg/kg is 233%.

Q: And the response vs control in vivo at 200 mg/kg [1, 10]?
A: Its response vs control in vivo at 200 mg/kg is 78%.

Q: With O=C1C2=C(NCCN3CCCC3)CCC(NCCN3CCCC3)=C2C(=O)c2c(O)ccc(O)c21 [Leuco-1,4-bis[2-(1-pyrrolidinyl)ethylamino]-5,8-dihydroxyanthraquinone] as the molecule, how does the “Median Survival Time” value (melanotic melanoma B16; 12 mg./kg. i.p.) read?
A: The value was 21.0 days.

Q: And the “Median Survival Time” value (melanotic melanoma B16; 25 mg./kg. i.p.)?
A: Its value is 22.0 days.

Q: What about the “Median Survival Time” value (melanotic melanoma B16; 50 mg./kg. i.p.) of the same molecule?
A: The value was 23.0 days.

Q: And the response vs control in vivo at 12 mg/kg (melanotic melanoma B16; Mus musculus, ip, 12 mg./kg. i.p., efficacy ≥125%, read-out: T/C × 100)?
A: The response vs control in vivo at 12 mg/kg was 131%.

Q: And the response vs control in vivo at 25 mg/kg (melanotic melanoma B16; [4])?
A: The response vs control in vivo at 25 mg/kg was 137%.

Q: What about the response vs control in vivo at 50 mg/kg (melanotic melanoma B16; [5]) of the same molecule?
A: Its response vs control in vivo at 50 mg/kg is 144%.

Q: What about the “Median Survival Time” value ([1]; 25 mg./kg. i.p.) of the same molecule?
A: Its value is 15.0 days.

Q: And the “Median Survival Time” value ([1]; 50 mg./kg. i.p.)?
A: Its value is 16.0 days.

Q: What about the “Median Survival Time” value ([1]; 100 mg./kg. i.p.) of the same molecule?
A: Its value is 19.0 days.

Q: What about the “Median Survival Time” value ([1]; 200 mg./kg. i.p.) of the same molecule?
A: Its value is 23.0 days.

Q: What about the response vs control in vivo at 25 mg/kg [1, 7] of the same molecule?
A: The response vs control in vivo at 25 mg/kg was 136%.

Q: What about the response vs control in vivo at 50 mg/kg [1, 8] of the same molecule?
A: The response vs control in vivo at 50 mg/kg was 145%.

Q: And the response vs control in vivo at 100 mg/kg [1, 9]?
A: Its response vs control in vivo at 100 mg/kg is 173%.

Q: What about the response vs control in vivo at 200 mg/kg [1, 10] of the same molecule?
A: Its response vs control in vivo at 200 mg/kg is 209%.

Q: How did the “Median Survival Time” value (melanotic melanoma B16; 0.37 mg./kg. i.p.) turn out when O=C1C2=C(NCCNCCO)CCC(NCCNCCO)=C2C(=O)c2c(O)ccc(O)c21 [Leuco-1,4-bis[2-(2-hydroxyethylamino)ethylamino]-5,8-dihydroxyanthraquinone] was run?
A: Its value is 22.0 days.

Q: And the “Median Survival Time” value (melanotic melanoma B16; 0.75 mg./kg. i.p.)?
A: Its value is 28.5 days.

Q: What about the “Median Survival Time” value (melanotic melanoma B16; 1.5 mg./kg. i.p.) of the same molecule?
A: Its value is 30.0 days.

Q: What about the “Median Survival Time” value (melanotic melanoma B16; 3 mg./kg. i.p.) of the same molecule?
A: Its value is 20.5 days.

Q: And the “Median Survival Time” value (melanotic melanoma B16; 6 mg./kg. i.p.)?
A: The value was 9.5 days.

Q: What about the response vs control in vivo at 0.37 mg/kg (melanotic melanoma B16; Mus musculus, ip, 0.37 mg./kg. i.p., efficacy ≥125%, read-out: T/C × 100) of the same molecule?
A: The response vs control in vivo at 0.37 mg/kg was 137%.

Q: What about the response vs control in vivo at 0.75 mg/kg (melanotic melanoma B16; Mus musculus, ip, 0.75 mg./kg. i.p., efficacy ≥125%, read-out: T/C × 100) of the same molecule?
A: Its response vs control in vivo at 0.75 mg/kg is 178%.

Q: What about the response vs control in vivo at 1.5 mg/kg (melanotic melanoma B16; Mus musculus, ip, 1.5 mg./kg. i.p., efficacy ≥125%, read-out: T/C × 100) of the same molecule?
A: Its response vs control in vivo at 1.5 mg/kg is 187%.

Q: What about the response vs control in vivo at 3 mg/kg (melanotic melanoma B16; [2]) of the same molecule?
A: The response vs control in vivo at 3 mg/kg was 128%.

Q: And the response vs control in vivo at 6 mg/kg (melanotic melanoma B16; [3])?
A: Its response vs control in vivo at 6 mg/kg is 59%.

Q: And the “Median Survival Time” value ([1]; 0.04 mg./kg. i.p.)?
A: The value was 18.5 days.

Q: And the “Median Survival Time” value ([1]; 0.09 mg./kg. i.p.)?
A: Its value is 21.5 days.

Q: And the “Median Survival Time” value ([1]; 0.19 mg./kg. i.p.)?
A: The value was 21.5 days.

Q: What about the “Median Survival Time” value ([1]; 0.39 mg./kg. i.p.) of the same molecule?
A: The value was 22.0 days.

Q: What about the “Median Survival Time” value ([1]; 0.78 mg./kg. i.p.) of the same molecule?
A: Its value is 28.0 days.

Q: What about the “Median Survival Time” value ([1]; 1.5 mg./kg. i.p.) of the same molecule?
A: The value was over 30.0 days.

Q: And the “Median Survival Time” value ([1]; 3.1 mg./kg. i.p.)?
A: Its value is 26.0 days.

Q: What about the “Median Survival Time” value ([1]; 6.2 mg./kg. i.p.) of the same molecule?
A: Its value is 23.0 days.

Q: What about the “Median Survival Time” value ([1]; 12.5 mg./kg. i.p.) of the same molecule?
A: Its value is 23.5 days.

Q: And the “Median Survival Time” value ([1]; 25 mg./kg. i.p.)?
A: The value was 12.0 days.

Q: What about the response vs control in vivo at 0.19 mg/kg ([1]; Mus musculus, P388, ip, 0.19 mg./kg. i.p., efficacy ≥125%, read-out: T/C × 100) of the same molecule?
A: Its response vs control in vivo at 0.19 mg/kg is 205%.

Q: And the response vs control in vivo at 0.04 mg/kg ([1]; Mus musculus, P388, ip, 0.04 mg./kg. i.p., efficacy ≥125%, read-out: T/C × 100)?
A: Its response vs control in vivo at 0.04 mg/kg is 176%.

Q: What about the response vs control in vivo at 0.09 mg/kg ([1]; Mus musculus, P388, ip, 0.09 mg./kg. i.p., efficacy ≥125%, read-out: T/C × 100) of the same molecule?
A: Its response vs control in vivo at 0.09 mg/kg is 205%.

Q: What about the response vs control in vivo at 0.39 mg/kg ([1]; Mus musculus, P388, ip, 0.39 mg./kg. i.p., efficacy ≥125%, read-out: T/C × 100) of the same molecule?
A: Its response vs control in vivo at 0.39 mg/kg is 209%.

Q: And the response vs control in vivo at 0.78 mg/kg ([1]; Mus musculus, P388, ip, 0.78 mg./kg. i.p., efficacy ≥125%, read-out: T/C × 100)?
A: Its response vs control in vivo at 0.78 mg/kg is 267%.

Q: What about the response vs control in vivo at 1.5 mg/kg ([1]; Mus musculus, P388, ip, 1.5 mg./kg. i.p., efficacy ≥125%, read-out: T/C × 100) of the same molecule?
A: Its response vs control in vivo at 1.5 mg/kg is over 286%.

Q: And the response vs control in vivo at 3.1 mg/kg ([1]; Mus musculus, P388, ip, 3.1 mg./kg. i.p., efficacy ≥125%, read-out: T/C × 100)?
A: The response vs control in vivo at 3.1 mg/kg was 248%.

Q: And the response vs control in vivo at 6.2 mg/kg ([1]; Mus musculus, P388, ip, 6.2 mg./kg. i.p., efficacy ≥125%, read-out: T/C × 100)?
A: The response vs control in vivo at 6.2 mg/kg was 219%.

Q: And the response vs control in vivo at 12.5 mg/kg [1, 6]?
A: Its response vs control in vivo at 12.5 mg/kg is 224%.

Q: And the response vs control in vivo at 25 mg/kg [1, 7]?
A: Its response vs control in vivo at 25 mg/kg is 114%.
